In USRE28700E, “Antibiotic X-5108 for stimulating growth” (Hoffmann-La Roche Inc., priority 1972, dated 1976):
Like-named read-outs stand apart in the source and are kept apart here.

Tests used:
mice = experiment: Acute toxicity in mice (LD50), oral and subcutaneous; format: in vivo
Streptococcus pyogenes = experiment: Activity against Streptococcus pyogenes infection (CD50); format: in vivo
Diplococcus pneumoniae = experiment: Activity against Diplococcus pneumoniae (CD50); format: in vivo
Proteus vulgaris = experiment: Activity against gram-negative Proteus vulgaris infection; conditions: in vivo
caecal coccidiosis = experiment: Activity in caecal coccidiosis; conditions: in vivo
[1] = Growth stimulating effect and feed efficiency in broiler chicks (Table 12); format: in vivo, Cornish Cross Sexed Broiler Chicks
Procedure: A basal ration was prepared containing the following named ingredients in the quantities hereinafter indicated: […]
Antibiotic X-5108 was added to this ration in a ratio of 50 milligrams of antibiotic per kilogram of ration.
(§1) The growth stimulating effects of antibiotic X-5108 were determined by allowing poultry to feed, ad libitum, on the antibiotic supplemented ration. In the test, one day old Cornish Cross Sexed Broiler Chicks were used. The test utilized 10 chicks per replicate (5 males and 5 females). The replicate groups were permitted access to the ration. A planned random distribution of the replicates was made to equalize factors of heating, light and position. The birds were observed over a two week period, with group weight being determined several times during the period and individual weights being determined at the end of 14 days. Feed consumption was also recorded and improvement in feed efficiency, as compared to the control, was calculated.
(§2) The average gain for each test group is divided by the average gain of the negative control group and the quotient multiplied by 100 to yield the percent weight gain. Gain is the final body weight of the chick at the end of the 2 week test minus the beginning weight of 1 day of age. [formula]

[2] = Growth stimulating effect and feed efficiency in chicks, repeated trials at varied levels (Table 13); format: in vivo, Cornish Cross Sexed Broiler Chicks; conditions: for Percent gain: control = 100
Procedure: as §1, §2
The experiment described in Example 5, including the control, was repeated several times using the same basal ration as in Example 5. In these trials the level of antibiotic X-5108 was varied. The trial chickens were fed on supplemented feed rations containing the active ingredient in a ratio of 5, 10, 25, 50 and 100 mg. per kg. of feed. These trials were repeated to confirm the results. In the control test four replicates of ten birds were allowed to feed on a basal ration devoid of the antibiotic supplement. […] Feed consumption was also recorded and improvements in feed efficiency in comparison to the control were calculated. Table 13 records the results of this series of experiments.

Bacillus E = experiment: Agar diffusion cup-plate assay, Bacillus E; format: cell-based
Procedure: (§3) The activity of antibiotic X-5108 can be measured in vitro by its zone of inhibition against the gram-positive bacterium Bacillus E in the usual cup-plate agar diffusion method. Alternately the gram-positive bacterium Bacillus simplex can be employed. Both bacteria give approximately 20 mm. inhibition zones with an arbitrarily defined 1 unit/ml. solution. In this assay method, a culture of the test microorganism is grown in nutrient broth, for example, Trypticase Soy Broth, for 24 to 42 hours at 28° C. in a rotary shaker (100 ml. medium per 500 ml. Erlenmeyer flask). An inoculum concentration of 0.25 to 0.5 percent is used to inoculate the 4 ml. seed layer which is poured over a prehardened 20 ml. of base nutrient agar layer in a 100 ml. glass or disposable plastic Petri dish. The plates are refrigerated for at least two hours before cupping and filling with test solution containing the antibiotic. The plates are then incubated at 35° C. for 18 hours and zone diameters are measured to the nearest 0.5 mm. Calculations of unit per ml. potencies are then made from standard curves.
(§4) The antimicrobial spectrum was determined by employing agar diffusion cup-plate assays as described earlier.

Bacillus simplex = experiment: Agar diffusion cup-plate assay, Bacillus simplex; format: cell-based; conditions: arbitrarily defined 1 unit/ml. solution
Procedure: as §3, §4

[3] = tested on: a variety of microorganisms including gram-positive and gram-negative bacteria; experiment: Antimicrobial activity in general / biopotency; format: cell-based
Procedure: as §3, §4

[4] = Growth promotion in poultry (general statement); format: in vivo

## C/C=C\C=C\[C@@H]1O[C@](O)([C@H](CC)C(=O)NC/C=C/C=C(\C)[C@@H](OC)[C@@H](C)[C@@H]2O[C@H](/C=C/C=C/C=C(\C)C(=O)c3c(O)ccn(C)c3=O)[C@H](O)[C@@H]2O)[C@H](O)[C@H](O)C1(C)C [Antibiotic X-5108]
mice; mice, oral
  LD50: > 2,000 mg./kg.
mice; mice, orally and subcutaneously
  toxicity in mice (in words): relatively atoxic orally and subcutaneously
mice; mice, subcutaneous
  LD50: 1,320 mg./kg.
mice; oral and parenteral
  oral and parenteral toxicity (in words): low oral and parenteral toxicity
Streptococcus pyogenes; orally
  CD50: 52 mg/kg
Streptococcus pyogenes; subcutaneously
  CD50: 44 mg/kg
Streptococcus pyogenes; systemically (oral route) and local (subcutaneous route)
  antistreptococcal activity (in words): marked antistreptococcal activity
Diplococcus pneumoniae; in vivo
  activity against pneumococcus (in words): activity against pneumococcus
Diplococcus pneumoniae; p.o.
  CD50: 807 mg/kg
Diplococcus pneumoniae; sbc (subcutaneous)
  CD50: 283 mg/kg
Proteus vulgaris
  activity against Proteus vulgaris infection (in words): active
Caecal coccidiosis
  activity in caecal coccidiosis (in words): activity
[1]; 50 mg. per kilogram of feed
  growth rate compared to control (in words): increased growth rate
[1]; 50 mg. per kilogram of feed, vs control
  improvement in feed efficiency: 10%
[1]; 50 mg./kg. feed, average for 40 chicks, basal control 154±8
  Two-week gain, g. ±2SE: 185 ± 12 g
[1]; 50 mg./kg. feed, two weeks, control 1.55
  Feed efficiency: 1.39
[1]; 50 mg./kg. feed, two weeks, control = 100
  Percent gain: 120%
[1]; 50 mg./kg. feed, vs control
  Percent improved feed efficiency: +12%
[2]; 10 mg./kg., 18 birds
  Percent improved feed eff.: +13%
  Percent gain: 124%
[2]; 10 mg./kg., 18 birds, control 1.54
  Feed eff.: 1.41
[2]; 10 mg./kg., 18 birds, control 149
  Two-week gain: 185 g
[2]; 25 mg./kg., 18 birds
  Percent improved feed eff.: +16%
  Percent gain: 123%
[2]; 25 mg./kg., 18 birds, control 1.59
  Feed eff.: 1.37
[2]; 25 mg./kg., 18 birds, control 146
  Two-week gain: 180 g
[2]; 50 mg./kg., 18 birds
  Percent improved feed eff.: +7%
  Percent gain: 114%
[2]; 50 mg./kg., 18 birds, control 1.47
  Feed eff.: 1.38
[2]; 50 mg./kg., 18 birds, control 152
  Two-week gain: 173 g
[2]; 50 mg./kg., 24 birds
  Percent improved feed eff.: +12%
  Percent gain: 117%
[2]; 50 mg./kg., 24 birds, control 1.54
  Feed eff.: 1.37
[2]; 50 mg./kg., 24 birds, control 149
  Two-week gain: 175 g
[2]; 100 mg./kg., 18 birds
  Percent improved feed eff.: +14%
  Percent gain: 122%
[2]; 100 mg./kg., 18 birds, control 1.54
  Feed eff.: 1.33
[2]; 100 mg./kg., 18 birds, control 149
  Two-week gain: 182 g
[2]; level not given, 18 birds
  Percent improved feed eff.: +9%
  Percent gain: 123%
[2]; level not given, 18 birds, control 1.51
  Feed eff.: 1.39
[2]; level not given, 18 birds, control 149
  Two-week gain: 183 g
Bacillus E; arbitrarily defined 1 unit/ml. solution
  inhibition zone: approximately 20 mm.
Bacillus E; solid powder after butyl acetate extraction, Example 1
  potency against Bacillus E: 120 units Bacillus E per mg.
Bacillus simplex
  inhibition zone: approximately 20 mm.
[3]; after countercurrent distribution, Example 3
  bipotency relative to starting material: approximately twice that of the starting material
[3]; agar diffusion cup-plate
  antimicrobial spectrum (in words): broad antimicrobial spectrum
[3]; crude or more purified form
  activity against a variety of microorganisms (in words): active against a variety of microorganisms including gram-positive and gram-negative bacteria
[4]
  feed efficiency in poultry (in words): enhanced feed efficiency
  growth promotion in poultry (in words): exhibits activity as a poultry growth promotant
[4]; listed as antibiotic X-5108
  growth promotion in poultry (in words): marked growth promotion in poultry
